The values below come from patent US20250188110A1, “SPECIFIC SMALL MOLECULE INHIBITORS THAT BLOCK KMT9 METHYLTRANSFERASE ACTIVITY AND FUNCTION” (ALBERT-LUDWIGS-UNIVERSITÄT FREIBURG, priority 2021, published 2025).

Like-named read-outs stand apart in the source and are kept apart here. Where only a bound is given, the exact number is not on record here.

Test [1] addresses T1, KMT9 (Homo sapiens, UniProt Q9Y5N5).
T1 sequence (Q9Y5N5 1-214): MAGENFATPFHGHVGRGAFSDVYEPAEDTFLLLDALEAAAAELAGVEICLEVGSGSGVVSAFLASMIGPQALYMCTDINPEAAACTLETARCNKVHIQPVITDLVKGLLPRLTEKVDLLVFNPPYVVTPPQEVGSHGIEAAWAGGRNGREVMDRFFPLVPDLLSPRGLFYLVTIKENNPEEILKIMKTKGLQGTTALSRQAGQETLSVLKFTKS
T1 sequence (Q9UI30 1-120 isoform Q9UI30-2 partner): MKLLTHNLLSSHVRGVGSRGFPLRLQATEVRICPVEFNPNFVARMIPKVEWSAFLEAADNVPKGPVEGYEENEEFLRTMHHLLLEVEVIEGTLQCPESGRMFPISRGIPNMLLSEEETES
Description: Microscale thermophoresis (MST) KMT9 binding. A digest of the protocol: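 Kd from microscale thermophoresis: compound series against 20 nM His-KMT9 labelled via RED-Tris-NTA, buffer 25 mM HEPES (pH 7.5)/100 mM NaCl/1 mM DTT/0.05% Tween, 40% MST power, 100% LED. Reported as classes: A ≤10 nM, B >10–100 nM, C >100–1000 nM, D >1000 nM.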
A general note: MST reads how a fluorescent partner responds to local heating, with and without ligand.

For test [2], the target named is T1, KMT9. Briefly: KMT9 thermal shift assay (SyproOrange). In kind it is binding. A digest of the protocol:
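ΔTm versus DMSO-only control is reported in bins (>20 K, 15–20 K, 10–15 K, ≤10 K), using Tm from Boltzmann sigmoidal fits of SyproOrange melt curves. KMT9 with compound in pH 8.5 BTP buffer containing MgCl2 and DTT was preincubated at 25° C, then ramped 1° C per 15 s up to 95° C.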

The target of test [3] is T1, KMT9. Description: KMT9 methyltransferase inhibition assay, MTaseGlo luminescence (from entry 155). It is filed as biochemical. The note with it: 100 nM KMT9, 5 μM ETF1, 1 μM SAM. Summed up: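 KMT9 (100 nM final) pre-incubated with inhibitor for 15 min at room temperature, then reacted with 5 μM ETF1 and 1 μM SAM for 2 h at 30° C. at 2% DMSO final. MTaseGlo luminescence read after 60 min detection; IC50 reported in four potency bins.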

[4] abbreviates: His-tag labelled KMT9 20 nM, Kd class, read-out: MST.
Setting [5] is: ΔTm class, 500 uM compound, 2 μM KMT9, read-out: Thermal shift.
The mark [6] stands for this setting: IC50 class, MTaseGlo procedure (entries from 155 on), read-out: Inhibition.
Setting [7] is: His-tag labelled KMT9 20 nM, read-out: MST (Kd).
The mark [8] stands for this setting: 500 µM compound, 2 μM KMT9, read-out: Thermal shift (ΔTm).
[9] abbreviates: MTaseGlo procedure (entries from 155), read-out: Inhibition (IC50).
[10] abbreviates: microscale thermophoresis, His-tag labelled KMT9 (20 nM), read-out: MST.
Where [11] appears, read: ΔTm, 500 µM compound, 2 μM KMT9, 5X SO, read-out: Thermal shift.
Setting [12] is: from entry 155: MTaseGlo assay, read-out: Inhibition.

Regarding `O[C@@H]1[C@H](O)[C@@H](C2CCCN(CC(F)(F)F)C2)C[C@H]1n1cc(-c2nc(Cc3ccccc3)cs2)c2cnc(Cl)nc21` (stereo partly drawn) [Compound 517, (1R,2S,3R,5R)-3-(5-(4-benzylthiazol-2-yl)-2-chloro-7H-pyrrolo[2,3-d]pyrimidin-7-yl)-5-(1-(2,2,2-trifluoroethyl)-313-piperidin-3-yl)cyclopentane-1,2-diol], the Kd on KMT9 [1] (setting [4]) is more than 1000 nM. Also, the ΔTm at 500 µM on KMT9 [2] (setting [5]) is not above 10 °C. For the same molecule, the IC50 at KMT9 [3] (setting [6]) was more than 10000 nM.
In the case of `Nc1nc(Cl)nc2c1ccn2[C@@H]1C[C@H](c2ccc(=O)[nH]c2)[C@@H](O)[C@H]1O` [Compound 590, 5-[(1R,2R,3S,4R)-4-{4-Amino-2-chloropyrrolo[2,3-d]pyrimidin-7-yl}-2,3-dihydroxycyclopentyl]-1H-pyridin-2-one], at KMT9 [1] (setting [7]), the Kd is 100 to 1000 nM. Moreover, the ΔTm at 500 µM at KMT9 [2] (setting [8]) is not above 10 °C. Besides, the IC50 on KMT9 [3] (setting [9]) was 1000 to 10000 nM.
As for `O[C@@H]1[C@H](O)[C@@H](C2CCN(CCc3ccccc3)CC2)C[C@H]1n1cc(-c2nc(Cc3ccccc3)cs2)c2cnc(Cl)nc21` [Compound 498, (1R,2S,3R,5R)-3-(5-(4-Benzylthiazol-2-yl)-2-chloro-7H-pyrrolo[2,3-d]pyrimidin-7-yl)-5-(1-phenethylpiperidin-4-yl)cyclopentane-1,2-diol], the Kd at KMT9 [1] (setting [4]) is 10 to 100 nM. The ΔTm at 500 µM on KMT9 [2] (setting [5]) lay in the range of 10 to 15 °C. Further, on KMT9 [3] (setting [6]), the IC50 fell in the range of 1000 to 10000 nM.
For `Nc1ncnc2c1c(-c1nc(Cc3ccccc3)cs1)cn2[C@@H]1C[C@H]([C@@H]2CCNC2)[C@@H](O)[C@H]1O` [Compound 589S, (1R,2S,3R,5R)-3-[4-Amino-5-(4-benzyl-1,3-thiazol-2-yl)pyrrolo[2,3-d]pyrimidin-7-yl]-5-[(3S)-pyrrolidin-3-yl]cyclopentane-1,2-diol], the Kd on KMT9 [1] (setting [4]) fell in the range of 100 to 1000 nM. Further, the ΔTm at 500 µM on KMT9 [2] (setting [5]) lay within 10 to 15 °C. Also, the IC50 on KMT9 [3] (setting [6]) was in the range of 1000 to 10000 nM.
On to `O[C@@H]1[C@@H](CNCCCNCCc2ccccc2)C[C@@H](n2cc3c4c(ncnc42)NCCC3)[C@@H]1O` [Compound 628, (1S,2R,3R,5R)-3-(((3-(Phenethylamino)propyl)amino)methyl)-5-(6,7,8,9-tetrahydro-2H-2,3,5,6-tetraazabenzo[cd]azulen-2-yl)cyclopentane-1,2-diol], for which, on KMT9 [1] (setting [10]), the Kd was in the range of 100 to 1000 nM. The ΔTm at 500 µM on KMT9 [2] (setting [11]) fell in the range of 10 to 15 °C. Also, the IC50 at KMT9 [3] (setting [12]) was 1000 to 10000 nM.
On to `COc1cc([C@H]2C[C@@H](n3cc(Br)c4c(N)nc(Cl)nc43)[C@H](O)[C@@H]2O)ccn1` [Compound 680, (1R,2S,3R,5R)-3-(4-amino-5-bromo-2-chloro-7H-pyrrolo[2,3-d]pyrimidin-7-yl)-5-(2-methoxypyridin-4-yl)cyclopentane-1,2-diol], for which, on KMT9 [1] (setting [7]), the Kd fell in the range of 10 to 100 nM. Further, the ΔTm at 500 µM on KMT9 [2] (setting [8]) lay within 10 to 15 °C. Moreover, the IC50 on KMT9 [3] (setting [9]) fell in the range of 100 to 1000 nM.
`CCN(CCCNCCc1ccc(F)cc1)C[C@H]1C[C@@H](n2cc(-c3ccccc3)c3c(N)nc(Cl)nc32)[C@H](O)[C@@H]1O` [Compound 568, (1R,2S,3R,5R)-3-(4-amino-2-chloro-5-phenyl-7//-pyrrolo[2,3-d]pyrimidin-7-yl)-5-((ethyl(3-((4-fluorophenethyl)amino)propyl)amino)methyl)cyclopentane-1,2-diol]: at KMT9 [1] (setting [4]), the Kd fell in the range of 10 to 100 nM. Further, the ΔTm at 500 µM on KMT9 [2] (setting [5]) is more than 20 °C. For the same molecule, on KMT9 [3] (setting [6]), the IC50 is 100 to 1000 nM.
Regarding `Cn1cc(Cl)c(-c2cn([C@@H]3C[C@H](c4cccc(CN5CCC5)c4)[C@@H](O)[C@H]3O)c3nc(Cl)nc(N)c23)n1` [Compound 675, (1R,2S,3R,5R)-3-(4-amino-2-chloro-5-(4-chloro-1-methyl-1H-pyrazol-3-yl)-7H-pyrrolo[2,3-d]pyrimidin-7-yl)-5-(3-(azetidin-1-ylmethyl)phenyl)cyclopentane-1,2-diol], the Kd at KMT9 [1] (setting [7]) is not above 10 nM. For the same molecule, the ΔTm at 500 µM on KMT9 [2] (setting [8]) was 15 to 20 °C. Further, on KMT9 [3] (setting [9]), the IC50 lay in the range of 100 to 1000 nM.
As to `CN(CCCNCCc1ccccc1)C[C@H]1C[C@@H](n2cc(-c3cc(Cc4ccccc4)cs3)c3cncnc32)[C@H](O)[C@@H]1O` [Compound 620, (1R,2S,3R,5R)-3-[5-(4-Benzylthiophen-2-yl)pyrrolo[2,3-d]pyrimidin-7-yl]-5-{[methyl({3-[(2-phenylethyl)amino]propyl})amino]methyl}cyclopentane-1,2-diol], the Kd at KMT9 [1] (setting [4]) was in the range of 100 to 1000 nM. The ΔTm at 500 µM at KMT9 [2] (setting [5]) fell in the range of 10 to 15 °C. In addition, the IC50 at KMT9 [3] (setting [6]) lay in the range of 1000 to 10000 nM.
For the molecule `CNc1ncnc2c1ccn2[C@@H]1C[C@H](c2ccc(O)cc2)[C@@H](O)[C@H]1O` [Compound 406, (1S,2R,3R,5R)-3-(4-hydroxyphenyl)-5-(4-(methylamino)-7H-pyrrolo[2,3-a]pyrimidin-7-yl) cyclopentane-1,2-diol], at KMT9 [1] (setting [7]), the Kd is more than 1000 nM. Also, the ΔTm at 500 µM on KMT9 [2] (setting [8]) was not above 10 °C. At KMT9 [3] (setting [9]), the IC50 is more than 10000 nM.
`Nc1nc(Cl)nc2c1c(-c1nc(Cc3ccccc3)cs1)cn2[C@@H]1C[C@H](C2CCN(CC3CCCC3)CC2)[C@@H](O)[C@H]1O` [Compound 523, (1R,2S,3R,5R)-3-(4-amino-5-(4-benzylthiazol-2-yl)-2-chloro-7H-pyrrolo[2,3-d]pyrimidin-7-yl)-5-(1-(cyclopentylmethyl)piperidin-4-yl)cyclopentane-1,2-diol]: the Kd at KMT9 [1] (setting [7]) fell in the range of 100 to 1000 nM. Besides, the ΔTm at 500 µM at KMT9 [2] (setting [8]) is 10 to 15 °C. In addition, at KMT9 [3] (setting [9]), the IC50 is 1000 to 10000 nM.
As to `Nc1ncnc2c1c(Br)cn2[C@@H]1C[C@H](c2ccccc2)[C@@H](O)[C@H]1O` [Compound 386, (1R,2S,3R,5R)-3-(4-amino-5-bromo-7H-pyrrolo[2,3-a]pyrimidin-7-yl)-5-phenylcyclopentane-1,2-diol], the Kd at KMT9 [1] (setting [4]) was more than 1000 nM. Moreover, on KMT9 [2] (setting [5]), the ΔTm at 500 µM was not above 10 °C. Moreover, the IC50 on KMT9 [3] (setting [6]) was more than 10000 nM.
For `CCc1cn([C@@H]2C[C@H](CNCCCNCCc3ccc(C(F)(F)F)cc3)[C@@H](O)[C@H]2O)c2ncnc(N)c12` [Compound 379, (1R,2S,3R,5R)-3-(4-amino-5-ethyl-7H-pyrrolo[2,3-d]pyrimidin-7-yl)-5-(((3-((4-(trifluoromethyl)phenethyl)amino)propyl)amino)methyl) cyclopentane-1,2-diol], at KMT9 [1] (setting [10]), the Kd was 100 to 1000 nM. Further, the ΔTm at 500 µM at KMT9 [2] (setting [11]) lay within 10 to 15 °C. Besides, the IC50 on KMT9 [3] (setting [12]) was in the range of 1000 to 10000 nM.
`Nc1ncnc2c1c(-c1nc(Oc3ccccc3)cs1)cn2[C@@H]1C[C@H](CNCCCNCCc2ccccc2)[C@@H](O)[C@H]1O` [Compound 607, (1R,2S,3R,5R)-3-(4-amino-5-(4-phenoxythiazol-2-yl)-7H-pyrrolo[2,3-d]pyrimidin-7-yl)-5-(((3-(phenethylamino)propyl)amino)methyl)cyclopentane-1,2-diol]: the Kd on KMT9 [1] (setting [10]) was in the range of 10 to 100 nM. Further, on KMT9 [2] (setting [11]), the ΔTm at 500 µM was 15 to 20 °C. For the same molecule, the IC50 on KMT9 [3] (setting [12]) fell in the range of 100 to 1000 nM.
